Laboratory results: patent publication EP0414533A1, “Use of iodopropargyl esters of alpha-amino acid derivatives as antimicrobial agents” (ROHM AND HAAS COMPANY, priority 1989, dated 1991)
Converted amounts (≈) assume the structure as drawn. Read-outs that look alike come from different tables or passages of the source.

What was measured:
[1] = test system: PSH; assay: In-vitro plant fungicide test; type: cell-based; details: Table IVb, read-out: % Control at (ppm) indicated PSH
[2] = test system: THREE FUNGI; assay: MIC test against three fungi in Mycophile Broth, pH 5.0, read after 8 days (Table VII); type: cell-based; details: 192 h, serial dilutions from 50 ppm, read after 8 days of incubation
[3] = test system: UST; assay: In-vitro plant fungicide test; type: cell-based; details: Table IVb, read-out: % Control at (ppm) indicated UST
[4] = test system: Xanthomonas campestris (XAN); assay: In-vitro plant fungicide test; type: cell-based; details: Xanthomonas campestris; 25 ppm; Table IVa; read-out: % Control at 25 ppm XAN
[5] = test system: Pythium ultimum (PYU); assay: In-vitro plant fungicide test; type: cell-based; details: Globisporangium ultimum
[6] = test system: Cochliobolus sativus (HEL); assay: In-vitro plant fungicide test; type: cell-based; details: Bipolaris sorokiniana
[7] = test system: 8 FUNGI; assay: Microbicides secondary test against 8 fungi on Mycophile Agar at pH 5.0 (Table VI); type: cell-based; design: key: 1= no growth; 0= growth of the indicated fungi at dose indicated in ppm; details: for ANIG growth: Aspergillus niger; for APUL growth: Aureobasidium pullulans; for CGLO growth: Chaetomium globosum; for CRES growth: Cladosporium resinae; for GTRA growth: Gloeophyllum trabeum; for PFUN growth: Penicillium funiculosum; for RRUB growth: Rhodotorula rubra; for SSER growth: Sacharomyces cerevisiae
Text: The results of the minimum inhibitory concentration (MIC) tests of compounds of this invention are shown in Tables IIIa IIIb, IIIc, V, VI, VII, and VIII against the microorganisms shown in Table IX.

[8] = test system: Aspergillus niger (ANIG); assay: Minimum inhibitory concentration (MIC), broth two-fold serial dilution test; type: cell-based; details: Aspergillus niger, IIIB, trypticase soy broth (complex media); Table IIIb; read-out: MIC (F) ANIG
[9] = test system: MON; assay: In-vitro plant fungicide test; type: cell-based; details: Table IVb, read-out: % Control at (ppm) indicated MON
[10] = test system: Pseudomonas aerugenosa (PSAE); assay: Minimum inhibitory concentration (MIC), broth two-fold serial dilution test; details: Pseudomonas, IIIB, read-out: MIC (G-) PSAE, trypticase soy broth (complex media); Table IIIb
[11] = test system: MIXED COOLING TOWER ALGAE; assay: MIC test against mixed cooling tower algae; type: cell-based, green algae and blue-green bacteria; details: Table VIII
Description: The algae culture contains green algae and blue-green bacteria, and is obtained from a cooling tower in Spring House, Pennsylvania. The algae culture is grown in Allen's medium on a rotary shaker under flourescent room lighting. This culture is further diluted with Allen's medium and then added to the test vessel.

[12] = test system: Escherichia coli (ECOL); assay: Minimum inhibitory concentration (MIC), broth two-fold serial dilution test; details: Escherichia coli, IIIB, read-out: MIC (G-) ECOL, trypticase soy broth (complex media); Table IIIb
[13] = test system: ALT; assay: In-vitro plant fungicide test; type: cell-based; details: Table IVb, read-out: % Control at (ppm) indicated ALT
[14] = test system: Staphylococcus aureus (SAUR); assay: Minimum inhibitory concentration (MIC), broth two-fold serial dilution test; details: Staphylococcus aureus, IIIB, read-out: MIC (G+) SAUR, trypticase soy broth (complex media); Table IIIb
[15] = test system: Septoria nodorum (SEP); assay: In-vitro plant fungicide test; type: cell-based; details: Parastagonospora nodorum
[16] = test system: Rhizoctonia solani (RHI); assay: In-vitro plant fungicide test; type: cell-based; details: Rhizoctonia solani

O=C(CN1C(=O)c2ccccc2C1=O)OCC#CI [Compound 30, N-phthaloylglycine iodopropargyl ester]
inhibition of growth at 1.5 ppm ([1]; 1.5 ppm): 100% | inhibition of growth at 6 ppm ([1]; 6 ppm): 100% | inhibition of growth at 25 ppm ([1]; 25 ppm): 100% | inhibition of growth at 0.2 ppm ([1]; .2 ppm): 0% | inhibition of growth at 0.4 ppm ([1]; .4 ppm): 100% | inhibition of growth at 0.8 ppm ([1]; .8 ppm): 100% | MIC ([2]; Aspergillus niger, read-out: MIC ANIG): 12.5 µg/mL (≈ 33.9 µM) | MIC ([2]; Aureobasidium pullulans, read-out: MIC APUL): 50 µg/mL (≈ 135 µM) | MIC ([2]; Gloeophyllum trabeum, read-out: MIC GTRA): 6.2 µg/mL (≈ 16.8 µM) | inhibition of growth at 1.5 ppm ([3]; 1.5 ppm): 0% | inhibition of growth at 3 ppm ([3]; 3 ppm): 0% | inhibition of growth at 6 ppm ([3]; 6 ppm): 0% | inhibition of growth at 12 ppm ([3]; 12 ppm): 0% | inhibition of growth at 25 ppm ([3]; 25 ppm): 0% | inhibition of growth at 0.2 ppm ([3]; .2 ppm): 0% | inhibition of growth at 0.4 ppm ([3]; .4 ppm): 0% | inhibition of growth at 0.8 ppm ([3]; .8 ppm): 0% | inhibition of growth at 25 ppm [4]: 0% | inhibition of growth at 1.5 ppm ([5]; 1.5 ppm, Table IVb, read-out: % Control at (ppm) indicated PYU): 100% | inhibition of growth at 6 ppm ([5]; 6 ppm, Table IVb, read-out: % Control at (ppm) indicated PYU): 100% | inhibition of growth at 25 ppm ([5]; Table IVa, read-out: % Control at 25 ppm PYU): 100% | inhibition of growth at 25 ppm ([5]; Table IVb, read-out: % Control at (ppm) indicated PYU): 100% | inhibition of growth at 0.2 ppm ([5]; .2 ppm, Table IVb, read-out: % Control at (ppm) indicated PYU): 100% | inhibition of growth at 0.4 ppm ([5]; .4 ppm, Table IVb, read-out: % Control at (ppm) indicated PYU): 100% | inhibition of growth at 0.8 ppm ([5]; .8 ppm, Table IVb, read-out: % Control at (ppm) indicated PYU): 100% | inhibition of growth at 1.5 ppm ([6]; 1.5 ppm, Table IVb, read-out: % Control at (ppm) indicated HEL): 0% | inhibition of growth at 6 ppm ([6]; 6 ppm, Table IVb, read-out: % Control at (ppm) indicated HEL): 100% | inhibition of growth at 25 ppm ([6]; Table IVa, *=Phytotoxic, read-out: % Control at 25 ppm HEL): 100% | inhibition of growth at 25 ppm ([6]; Table IVb, read-out: % Control at (ppm) indicated HEL): 100% | inhibition of growth at 0.2 ppm ([6]; .2 ppm, Table IVb, read-out: % Control at (ppm) indicated HEL): 0% | inhibition of growth at 0.4 ppm ([6]; .4 ppm, Table IVb, read-out: % Control at (ppm) indicated HEL): 0% | inhibition of growth at 0.8 ppm ([6]; .8 ppm, Table IVb, read-out: % Control at (ppm) indicated HEL): 0% | ANIG growth ([7]; 0.2 PPM): 0 | ANIG growth ([7]; 1.0 PPM): 0 | ANIG growth ([7]; 2.5 PPM): 0 | ANIG growth ([7]; 25 PPM): 1 | APUL growth ([7]; 0.2 PPM): 0 | APUL growth ([7]; 1.0 PPM): 0 | APUL growth ([7]; 2.5 PPM): 0 | APUL growth ([7]; 25 PPM): 1 | CGLO growth ([7]; 0.2 PPM): 0 | CGLO growth ([7]; 1.0 PPM): 0 | CGLO growth ([7]; 2.5 PPM): 1 | CGLO growth ([7]; 25 PPM): 1 | CRES growth ([7]; 0.2 PPM): 0 | CRES growth ([7]; 1.0 PPM): 0 | CRES growth ([7]; 2.5 PPM): 0 | CRES growth ([7]; 25 PPM): 1 | GTRA growth ([7]; 0.2 PPM): 0 | GTRA growth ([7]; 1.0 PPM): 0 | GTRA growth ([7]; 2.5 PPM): 1 | GTRA growth ([7]; 25 PPM): 1 | PFUN growth ([7]; 0.2 PPM): 0 | PFUN growth ([7]; 1.0 PPM): 0 | PFUN growth ([7]; 2.5 PPM): 0 | PFUN growth ([7]; 25 PPM): 1 | RRUB growth ([7]; 0.2 PPM): 0 | RRUB growth ([7]; 1.0 PPM): 0 | RRUB growth ([7]; 2.5 PPM): 0 | RRUB growth ([7]; 25 PPM): 1 | SSER growth ([7]; 0.2 PPM): 0 | SSER growth ([7]; 1.0 PPM): 0 | SSER growth ([7]; 2.5 PPM): 1 | SSER growth ([7]; 25 PPM): 1 | MIC [8]: 0.12 µg/mL (≈ 0.325 µM) | inhibition of growth at 1.5 ppm ([9]; 1.5 ppm): 100% | inhibition of growth at 6 ppm ([9]; 6 ppm): 100% | inhibition of growth at 25 ppm ([9]; 25 ppm): 100% | inhibition of growth at 0.2 ppm ([9]; .2 ppm): 100% | inhibition of growth at 0.4 ppm ([9]; .4 ppm): 100% | inhibition of growth at 0.8 ppm ([9]; .8 ppm): 100% | MIC [10]: > 250 µg/mL | MIC [11]: 6.2 µg/mL (≈ 16.8 µM) | MIC [12]: > 250 µg/mL | inhibition of growth at 1.5 ppm ([13]; 1.5 ppm): 0% | inhibition of growth at 3 ppm ([13]; 3 ppm): 50% | inhibition of growth at 6 ppm ([13]; 6 ppm): 90% | inhibition of growth at 12 ppm ([13]; 12 ppm): 100% | inhibition of growth at 25 ppm ([13]; 25 ppm): 100% | inhibition of growth at 0.2 ppm ([13]; .2 ppm): 0% | inhibition of growth at 0.4 ppm ([13]; .4 ppm): 0% | inhibition of growth at 0.8 ppm ([13]; .8 ppm): 0% | MIC [14]: > 250 µg/mL | inhibition of growth at 1.5 ppm ([15]; 1.5 ppm, Table IVb, read-out: % Control at (ppm) indicated SEP): 100% | inhibition of growth at 6 ppm ([15]; 6 ppm, Table IVb, read-out: % Control at (ppm) indicated SEP): 100% | inhibition of growth at 25 ppm ([15]; Table IVa, read-out: % Control at 25 ppm SEP): 75% | inhibition of growth at 25 ppm ([15]; Table IVb, read-out: % Control at (ppm) indicated SEP): 100% | inhibition of growth at 0.2 ppm ([15]; .2 ppm, Table IVb, read-out: % Control at (ppm) indicated SEP): 0% | inhibition of growth at 0.4 ppm ([15]; .4 ppm, Table IVb, read-out: % Control at (ppm) indicated SEP): 0% | inhibition of growth at 0.8 ppm ([15]; .8 ppm, Table IVb, read-out: % Control at (ppm) indicated SEP): 100% | inhibition of growth at 1.5 ppm ([16]; 1.5 ppm, Table IVb, read-out: % Control at (ppm) indicated RHI): 0% | inhibition of growth at 6 ppm ([16]; 6 ppm, Table IVb, read-out: % Control at (ppm) indicated RHI): 100% | inhibition of growth at 25 ppm ([16]; Table IVa, read-out: % Control at 25 ppm RHI): 90% | inhibition of growth at 25 ppm ([16]; Table IVb, read-out: % Control at (ppm) indicated RHI): 100% | inhibition of growth at 0.2 ppm ([16]; .2 ppm, Table IVb, read-out: % Control at (ppm) indicated RHI): 0% | inhibition of growth at 0.4 ppm ([16]; .4 ppm, Table IVb, read-out: % Control at (ppm) indicated RHI): 0% | inhibition of growth at 0.8 ppm ([16]; .8 ppm, Table IVb, read-out: % Control at (ppm) indicated RHI): 0%
